According to US9782464B2, “Methods and compositions for inhibiting diseases of the central nervous system” (Board of Regents of the University of Nebraska, priority 2008, dated 2017):

Assays:
MES23.5 cells = experiment: Cathepsin B inhibition and neurotoxicity, microglial supernatants on MES23.5 cells; format: cell-based; details: inhibitor 1 μM, N-α-syn 100 nM
Procedure: MES 23.5 cells were cultured in 75-cm^2 flasks in DMEM/F12 with 15 mM HEPES (Invitrogen) containing N2 supplement (Invitrogen), 100 U/ml of penicillin, 100 μg/ml streptomycin, and 5% FBS. MES23.5 cells is a cell line derived using somatic cell fusion of rat embryonic mesencephalon cells and the murine neuroblastoma-glioma cell line N18TG2 that produce dopamine and express tyrosine hydroxylase (Crawford et al. (1992) J. Neuroscience 12:3392-3398). Cells were grown to 80% confluence then plated at a density of 10×10^4 cells on sterile glass coverslips. Microglia were plated in 6 well plates and incubated for 1 hour with or without 1 μM of cathepsin B inhibitors, CA-074 [cell impermeable] or CA-074 Me [cell permeable] (Sigma), in a 37° C., 5% CO2 incubator to inhibit residual cathepsin B expression (Gan et al. (2004) J. Biol. Chem., 279:5565-5572). […] MES 23.5 cell viability was assessed using the Live/Dead cytotoxicity assay (Invitrogen) as previously described. Live cells were distinguished by the uptake of calcein AM to acquire a green fluorescence [excitation/emission (ex/em) 495/515 nm], while dead cells acquired a red fluorescence (ex/em 495/635 nm) due to the uptake of ethidium homodimer-1 (EthD-1). Cell enumerations were performed using fluorescence microscopy (200× magnification, n=6 wells per group, 3 frames per well).

primary microglia = experiment: Flow cytometry of active caspase-3 and cathepsin B (CB) in microglia; format: cell-based, mouse; details: N-α-syn-stimulated cultures
Procedure: Samples from cell fractions were labeled with fluorescently labeled Abs to CD4, CD8, CD25, CTLA-4, CD62L, Fas ligand (FasL), Fas (APO-1), CD1 b, and intracellular FoxP3 (eBioscience) and active caspase-3 (Abcam) and analyzed with a FACSCalibur flow cytometer (BD Biosciences). FITC-latex beads ([…], 2.5% solids; Sigma-Aldrich) were added to microglial cultures for 30 minutes. Microglia were then detached and acid-washed (PBS, pH 6.0) to quench fluorescence of nonphagocytosed beads, and cells were analyzed by flow cytometry and gated to CD11b+ cells. Fluorescence intensity was normalized to beads alone.
Apoptotic cells were detected using the TACS TdT Fluorescein In Situ Apoptosis Detection kit (R&D Systems) according to the manufacturer's protocol and were visualized by a fluorescent microscope. MFI of TUNEL+ cells was determined per field using ImageJ and was normalized to DAPI-stained nuclei (n=3, six fields per well). Caspase activity was determined using the SensoLyte Homogeneous Rh110 Caspase-3/7 Assay kit (AnaSpec) according to the manufacturer's protocol. Cell viability was determined by 3-(4,5-dimethylthiazol-2-yl)-2,5-diphenyl tetrazolium bromide (MTT) activity as described previously. Functional grade Abs to mouse FasL (2 μg/ml; eBioscience) and Fas (5 μg/ml; BD PharMingen) and CA074ME (BIOMOL) were used.

[1] = test system: anti-CD3 stimulated T cells; experiment: Proliferation of anti-CD3 activated T cells with 4YSyn or N-4YSyn; format: cell-based, mouse; details: 1, 3, 10 and 30 μg/ml
Procedure: For proliferation analyses, purified T cells from naive B6 mice were plated with SPC irradiated at 3000 rad (1:3) at 2×10^6 cells/ml in complete RPMI tissue culture media and activated with anti-CD3 (0.5 μg/ml, 145-2C11; BD Pharmingen) in U-bottom 96-well tissue culture plates. Graded concentrations of 4YSyn or N-4YSyn were added to quadruplicate wells. After activation for 3 days, ^3H-thymidine incorporation was performed as described previously.

[2] = test system: anti-CD3 stimulated T cells; experiment: PI uptake cytotoxicity of anti-CD3 stimulated T cells (flow cytometry); format: cell-based, mouse; details: 24 hours
Procedure: To assess α-Syn-mediated cytotoxicity, purified T cells were stimulated with anti-CD3 and cultured at a density of 1×10^6 cells/ml for 24 hours in media alone or in the presence of 4YSyn or N-4YSyn at concentrations of 1, 3, 10, or 30 μg/ml. Cells were stained with PI, washed and the percentages of PI^+ dead cells and MFI were analyzed by flow cytometry.

SPC (spleen cells) = experiment: Antigen-specific 3H-thymidine proliferation of SPC from immunized mice; format: cell-based, mouse; details: B10.BR mice immunized in CFA/IFA
MPTP-intoxicated mice [3] = experiment: Adoptive transfer of polarized N-4YSyn CD4+ T cell subsets to MPTP-intoxicated mice; format: in vivo, mouse; details: 7 days after MPTP
Procedure: (§1) Recombinant C-terminal tail of α-syn (4YSyn) was purified, nitrated (N-4YSyn), and tested for endotoxin as described. Male C57BL/6J mice and FoxP3-GFP knock in C57BL/6J mice (5 weeks old, The Jackson Laboratory) were immunized with N-4YSyn emulsified in adjuvant as described. […] Recipient mice received four i.p. injections at 2 hour intervals of either vehicle (PBS, 10 mL/kg bodyweight) or MPTP-HCl (16 mg MPTP/kg bodyweight of free base in PBS; Sigma-Aldrich). Twelve hours after the last injection, MPTP-intoxicated mice received adoptive transfers of whole SPC, Treg or no cells (n=5-7 mice per group per time point). On days 2 and 7 post-MPTP, mice were sacrificed and brains were processed for analysis. […] MPTP safety measures were in accordance with published guidelines (Przedborski et al. (2001) J. Neurochem., 76:1265-1274).
CD4+ T cells were isolated from N-4YSyn immunized donors and cultured 1×10^6/ml CD4+ T cells with 2×10^6/ml irradiated SPC and […] N-4YSyn in 20 ml of complete RPMI 1640 supplemented with 10% FBS, 2 mM L-glutamine, 10 mM HEPES, 55 μm 2-mercaptoethanol, 100 units/ml penicillin, and 100 μg/ml streptomycin in T25 flasks. […]
Mice were transcardially-perfused with PBS followed by 4% paraformaldehyde (PFA, Sigma). […] Fluorojade C staining (Millipore) was performed on adjacent sections according to manufacturer's protocol to assess degenerating neurons and quantified using ImageJ. Overall dopaminergic neuron survival was assessed seven days following MPTP intoxication and resolution of cell death processes with polyclonal antibody to mouse Tyrosine hydroxylase (TH), 1:1000 (Calbiochem) and counterstained for Nissl substance by thionin staining (Tieu et al. (2003) J. Clin. Invest., 112:892-901) as previously described (Benner et al. (2004) Proc. Natl. Acad. Sci., 101:9435-9440). […] Quantitation of striatal TH (1:500; Calbiochem) was performed by densitometric analysis as described (Benner et al. (2004) Proc. Natl. Acad. Sci., 101:9435-9440). […]

MPTP-intoxicated B6 mice = experiment: Adoptive transfer of immune SPC to MPTP-treated B6 mice; format: in vivo, mouse; details: day 7
MPTP-intoxicated mice [4] = experiment: Adoptive transfer of N-4YSyn and VIP SPC or Treg to MPTP-intoxicated mice (Example 6); format: in vivo, mouse
Procedure: as §1
Seven days following treatment, mice were sacrificed and single cell suspensions were prepared from inguinal lymph nodes and spleens. CD4+ T cell populations from spleens and lymph nodes were enriched by negative selection with CD4-enrichment columns (R & D Systems) followed by CD25-PE positive selection with AutoMACS (Miltenyi Biotec). […] Proliferation and inhibition assays were performed as described. MPTP-intoxicated mice received an i.v. tail injection of 5×10^7 SPC or 1×10^6 Treg in 0.25 ml of HBSS.
Mice were transcardially-perfused with PBS followed by 4% paraformaldehyde (PFA, Sigma). Frozen midbrain sections (30 μm) were immunostained for Mac-1 (CD11b, 1:1000; Serotec). Fluorojade C staining (Millipore) was performed on adjacent sections according to manufacturer's protocol to assess degenerating neurons and quantified using ImageJ. Overall dopaminergic neuron survival was assessed seven days following MPTP intoxication and resolution of cell death processes with polyclonal antibody to mouse Tyrosine hydroxylase (TH), 1:1000 (Calbiochem) and counterstained for Nissl substance by thionin staining (Tieu et al. (2003) J. Clin. Invest., 112:892-901) as previously described (Benner et al. (2004) Proc. Natl. Acad. Sci., 101:9435-9440). Total numbers of Mac-1^+ cells, […] and Nissl-stained neurons in the SNpc were estimated by stereological analysis with StereoInvestigator software (MicroBrightfield) using the optical fractionator module (Liberatore et al. (1999) Nat. Med., 5:1403-1409). Quantitation of striatal TH (1:500; Calbiochem) was performed by densitometric analysis as described (Benner et al. (2004) Proc. Natl. Acad. Sci., 101:9435-9440). Adjacent midbrain sections were immunostained for CD4 (L3T4; 1:200, BD Pharmingen). Sections were incubated in streptavidin-horseradish peroxidase (HRP) solution (ABC Elite vector kit, Vector Laboratories), and color developed using a generation system consisting of diaminobenzidine (DAB) chromogen (Sigma-Aldrich) as described (Benner et al. (2004) Proc. Natl. Acad. Sci., 101:9435-9440).

TH+ neurons in the SN = experiment: Chronic MPTP intoxication, TH+ neuron counts in SN of WT and SCID mice; format: in vivo, mouse
Procedure: For chronic intoxication, B6 mice received 5 intraperitoneal (i.p.) injections at 24 hour intervals for 5 days of either vehicle (PBS, 10 ml/kg) or MPTP-HCl (30 mg/kg of free base in PBS) (Sigma-Aldrich, St. Louis, Mo.). For acute intoxication, mice received 4 i.p. injections, one every 2 hours, of either vehicle (PBS, 10 ml/kg) or MPTP-HCl (18 mg/kg of free base in PBS for B10.BR mice, 14 or 18 mg/kg for B6 mice). At selected time points following MPTP intoxication, mice were sacrificed and brains processed for subsequent analyses. MPTP handling and safety measures were in accordance with published guidelines (Przedborski et al. (2001) J. Neurochem., 76:1265-1274).
At the time points indicated following MPTP intoxication, mice were transcardially perfused with 4% paraformaldehyde (PFA) in 0.1 M PBS using 0.9% saline as vascular rinse. Brains were post-fixed in 4% PFA overnight, kept in 30% sucrose for 2 days, snap frozen, embedded in OCT compound, and […] sections cut on a cryostat (CM1900, Leica, Bannockburn, Ill.). The sections were collected in PBS and processed free-floating. […] Fluoro-Jade C (Chemicon International, Inc., Temecula, Calif.) was used to stain degenerating neurons (Schmued et al. (2005) Brain Res., 1035:24-31) and was detected as green fluorescence by fluorescence microscopy with FITC filter (Eclipse E800, Nikon, Inc., Melville, N.Y.). […]

[5] = test system: MPTP-intoxicated B10.BR mice; experiment: Adoptive transfer of immune SPC or T cells to MPTP-treated B10.BR mice; format: in vivo, mouse

## CCCNC(=O)[C@H]1O[C@@H]1C(=O)N[C@H](C(=O)N1CCC[C@H]1C(=O)OC)[C@@H](C)CC [CA-074 Me]
MES23.5 cells
  protection of DA cells v. N-α-syn alone: 87%
Primary microglia
  diminution of active caspase-3+ cells: 11.1±0.5%

## 4YSyn: recombinant His-tagged C-terminal 40 aa α-Syn fragment containing all four tyrosine residues, non-nitrated
[1]
  proliferation of anti-CD3 stimulated T cells: not inhibited
[2]; 1 μg/ml
  % PI+ T cells: 4.9%
  MFI of PI-stained T cells: 32.3
[2]; 3 μg/ml
  % PI+ T cells: 6%
  MFI of PI-stained T cells: 34.1
[2]; 10 μg/ml
  % PI+ T cells: 4.7%
  MFI of PI-stained T cells: 25.2
[2]; 30 μg/ml
  % PI+ T cells: 4.2%
  MFI of PI-stained T cells: 26.8
SPC (spleen cells)
  proliferative response of SPC to in vitro stimulation with the antigen: no significant immune responses

## CN1CC=C(c2ccccc2)CC1 [MPTP, 1-methyl-4-phenyl-1,2,3,6-tetrahydropyridine]
MPTP-intoxicated mice [3]
  TH density within the striatum: 26 % of PBS-treated controls
  loss of TH+ neurons vs PBS-treated controls: 25%
  total TH+ neurons within the SNpc: 5971±250
MPTP-intoxicated B6 mice
  loss of TH+ nigral neurons compared to PBS-treated controls: 43%
MPTP-intoxicated mice [4]; 2 days post-MPTP
  increase in numbers of Mac-1+ cells within the SNpc compared with PBS controls: greater than 16 fold
MPTP-intoxicated mice [4]; 7 days after MPTP, FIG. 35C
  loss of nigral TH+ neurons compared with PBS controls: 45%
MPTP-intoxicated mice [4]; 7 days after MPTP, FIG. 38B
  reduction of SNpc TH+ neurons compared with PBS controls: 48%
MPTP-intoxicated mice [4]; 7 days after MPTP, FIG. 38C
  Striatal TH+ density: 16 % of PBS controls
MPTP-intoxicated mice [4]; MPTP mice, FIG. 38D, Treg co-transferred with N-4YSyn SPC
  TH+ neuron survival: 49%
TH+ neurons in the SN; SCID mice
  numbers of TH+ neurons compared to PBS: No significant difference
TH+ neurons in the SN; WT B6 mice, 21 days after last injection
  reduction in numbers of TH+ neurons in the SN compared to PBS: 33%
[5]; MPTP-treated B10.BR mice, stereology
  reduction of SN TH+ neurons compared to PBS controls: 45%
[5]; SN of MPTP-treated B10.BR mice, mean±SEM
  Counts of Mac-1+ microglia: 27.7±3.2 /mm^2
